Experimental data taken from the NIST ThermoML archive (doi:10.1016/j.tca.2017.02.014).
Where “and” joins values, the source holds several entries; their conditions need not be identical. Equal entries are not always repeated. ± gives the expanded uncertainty stated by the source.

Experiments:
[1] = Crystal; DTA
[2] = Molar enthalpy of transition or fusion; conditions: Crystal; DSC

Row | Normal melting temperature [1] | Molar enthalpy of transition or fusion [2] [kcal/mol] | SMILES
1 | 128.00 ± 0.5 °C and 127.50 ± 0.5 °C | 5.88 ± 0.263 | NC(=O)c1cccnc1 [3-pyridinecarboxamide]
2 | 94.20 ± 0.5 °C and 93.50 ± 0.5 °C | 7.29 ± 0.287 | CC(C(=O)O)c1cccc(C(=O)c2ccccc2)c1 (centres undefined) [ketoprofen]
